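In this assay, cells in 96-well plates receive the compound at five concentrations for 48 hours. Endpoints are linearly interpolated between the surrounding concentrations. GI50 is the concentration that inhibits growth by half. At the TGI there is no net growth.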
Legend:
Test in all cases: NCI-60 cell line screen, 48 h
SK-MEL-2 melanoma = tested on: SK-MEL-2 melanoma
NCI/ADR-RES ovarian = tested on: NCI/ADR-RES ovarian
MDA-MB-231 breast = tested on: MDA-MB-231 breast
HCT-15 colon = tested on: HCT-15 colon
RXF 393 renal = tested on: RXF 393 renal
CCRF-CEM leukemia = tested on: CCRF-CEM leukemia
SF-539 CNS = tested on: SF-539 CNS
NCI-H522 lung = tested on: NCI-H522 lung
MOLT-4 leukemia = tested on: MOLT-4 leukemia
OVCAR-3 ovarian = tested on: OVCAR-3 ovarian
HCC-2998 colon = tested on: HCC-2998 colon
UO-31 renal = tested on: UO-31 renal
PC-3 prostate = tested on: PC-3 prostate
HOP-62 NSCLC = tested on: HOP-62 NSCLC
HOP-92 NSCLC = tested on: HOP-92 NSCLC
A549 NSCLC = tested on: A549 NSCLC
SN12C renal = tested on: SN12C renal
SW-620 colon = tested on: SW-620 colon
CAKI-1 renal = tested on: CAKI-1 renal
M14 melanoma = tested on: M14 melanoma
IGROV1 ovarian = tested on: IGROV1 ovarian
SK-MEL-5 melanoma = tested on: SK-MEL-5 melanoma
SK-OV-3 ovarian = tested on: SK-OV-3 ovarian
NCI-H226 lung = tested on: NCI-H226 lung
OVCAR-8 ovarian = tested on: OVCAR-8 ovarian
U251 CNS = tested on: U251 CNS
HT29 colon = tested on: HT29 colon
SNB-75 CNS = tested on: SNB-75 CNS
KM12 colon = tested on: KM12 colon
HL-60(TB) leukemia = tested on: HL-60(TB) leukemia
EKVX NSCLC = tested on: EKVX NSCLC
K-562 leukemia = tested on: K-562 leukemia
SNB-19 CNS = tested on: SNB-19 CNS
786-0 renal = tested on: 786-0 renal
RPMI-8226 leukemia = tested on: RPMI-8226 leukemia
MCF7 breast = tested on: MCF7 breast
BT-549 breast = tested on: BT-549 breast
HS 578T breast = tested on: HS 578T breast
SR leukemia = tested on: SR leukemia
COLO 205 colon = tested on: COLO 205 colon
T-47D breast = tested on: T-47D breast
SF-295 CNS = tested on: SF-295 CNS
DU-145 prostate = tested on: DU-145 prostate
OVCAR-5 ovarian = tested on: OVCAR-5 ovarian
A498 renal = tested on: A498 renal
UACC-62 melanoma = tested on: UACC-62 melanoma
TK-10 renal = tested on: TK-10 renal
UACC-257 melanoma = tested on: UACC-257 melanoma
ACHN renal = tested on: ACHN renal
MDA-MB-435 = tested on: MDA-MB-435
OVCAR-4 ovarian = tested on: OVCAR-4 ovarian
SK-MEL-28 melanoma = tested on: SK-MEL-28 melanoma
HCT-116 colon = tested on: HCT-116 colon
NCI-H23 lung = tested on: NCI-H23 lung
LOX IMVI melanoma = tested on: LOX IMVI melanoma
MALME-3M melanoma = tested on: MALME-3M melanoma

Structure (SMILES): O=C(O)c1ccc(-c2nc3ccc(Cl)cc3[nH]2)cc1
- TGI (SK-MEL-2 melanoma): > 100 µM
- TGI (NCI/ADR-RES ovarian): > 100 µM
- TGI (MDA-MB-231 breast): > 100 µM
- TGI (HCT-15 colon): > 100 µM
- TGI (RXF 393 renal): > 100 µM
- TGI (CCRF-CEM leukemia): > 100 µM
- TGI (SF-539 CNS): > 100 µM
- TGI (NCI-H522 lung): > 100 µM
- TGI (MOLT-4 leukemia): > 100 µM
- TGI (OVCAR-3 ovarian): > 100 µM
- TGI (HCC-2998 colon): > 100 µM
- TGI (UO-31 renal): > 100 µM
- TGI (PC-3 prostate): > 100 µM
- TGI (HOP-62 NSCLC): > 100 µM
- TGI (HOP-92 NSCLC): > 100 µM
- TGI (A549 NSCLC): > 100 µM
- TGI (SN12C renal): > 100 µM
- TGI (SW-620 colon): > 100 µM
- TGI (CAKI-1 renal): > 100 µM
- TGI (M14 melanoma): > 100 µM
- TGI (IGROV1 ovarian): > 100 µM
- TGI (SK-MEL-5 melanoma): > 100 µM
- TGI (SK-OV-3 ovarian): > 100 µM
- TGI (NCI-H226 lung): > 100 µM
- TGI (OVCAR-8 ovarian): > 100 µM
- TGI (U251 CNS): > 100 µM
- TGI (HT29 colon): > 100 µM
- TGI (SNB-75 CNS): > 100 µM
- TGI (KM12 colon): > 100 µM
- TGI (HL-60(TB) leukemia): > 100 µM
- TGI (EKVX NSCLC): > 100 µM
- TGI (K-562 leukemia): > 100 µM
- TGI (SNB-19 CNS): > 100 µM
- TGI (786-0 renal): > 100 µM
- TGI (RPMI-8226 leukemia): > 100 µM
- TGI (MCF7 breast): > 100 µM
- TGI (BT-549 breast): > 100 µM
- TGI (HS 578T breast): > 100 µM
- TGI (SR leukemia): > 100 µM
- TGI (COLO 205 colon): > 100 µM
- TGI (T-47D breast): > 100 µM
- TGI (SF-295 CNS): > 100 µM

Structure (SMILES): c1cc(-c2ccc(-c3ccc(C4=NC5CCCCC5N4)cc3)o2)ccc1C1=NC2CCCCC2N1 (stereo unspecified)
- TGI (NCI/ADR-RES ovarian): > 100 µM
- TGI (HCT-15 colon): 79.4 µM
- TGI (CCRF-CEM leukemia): > 100 µM
- TGI (DU-145 prostate): 3.33 µM
- TGI (HCC-2998 colon): 2.56 µM
- TGI (UO-31 renal): 6.89 µM
- TGI (OVCAR-5 ovarian): 4.55 µM
- TGI (PC-3 prostate): 2.78 µM
- TGI (A498 renal): 9.04 µM
- TGI (UACC-62 melanoma): 3.14 µM
- TGI (A549 NSCLC): 3.14 µM
- TGI (SN12C renal): 3.03 µM
- TGI (SW-620 colon): > 100 µM
- TGI (CAKI-1 renal): > 100 µM
- TGI (M14 melanoma): 3.01 µM
- TGI (TK-10 renal): 16.4 µM
- TGI (HT29 colon): 2.89 µM
- TGI (HL-60(TB) leukemia): 4.86 µM
- TGI (UACC-257 melanoma): 3.28 µM
- TGI (ACHN renal): 5.7 µM
- TGI (EKVX NSCLC): 3.42 µM
- TGI (MDA-MB-435): 4.84 µM
- TGI (SNB-19 CNS): 2.8 µM
- TGI (786-0 renal): 2.81 µM
- TGI (MCF7 breast): 2.53 µM

Structure (SMILES): CO/N=C(\C)c1cccc(Nc2cc(-c3ccccc3)nc3c(O)cccc23)c1
- GI50 (SK-MEL-2 melanoma): 5.76 µM
- TGI (SK-MEL-2 melanoma): > 100 µM
- GI50 (NCI/ADR-RES ovarian): 2.02 µM
- TGI (NCI/ADR-RES ovarian): 13.5 µM
- GI50 (MDA-MB-231 breast): 2.74 µM
- TGI (MDA-MB-231 breast): 9.4 µM
- GI50 (HCT-15 colon): 3.38 µM
- TGI (HCT-15 colon): 16.9 µM
- GI50 (RXF 393 renal): 3.69 µM
- TGI (RXF 393 renal): 14.9 µM
- GI50 (CCRF-CEM leukemia): 2.57 µM
- TGI (CCRF-CEM leukemia): 8.74 µM
- GI50 (SF-539 CNS): 10.8 µM
- TGI (SF-539 CNS): 39.9 µM
- GI50 (NCI-H522 lung): 2.78 µM
- TGI (NCI-H522 lung): 6.95 µM
- GI50 (OVCAR-3 ovarian): 2.34 µM
- TGI (OVCAR-3 ovarian): 7.12 µM
- GI50 (DU-145 prostate): 9.2 µM
- TGI (DU-145 prostate): 28 µM
- GI50 (HCC-2998 colon): 2.88 µM
- TGI (HCC-2998 colon): 12.6 µM
- GI50 (UO-31 renal): 4.58 µM
- TGI (UO-31 renal): 60.5 µM
- GI50 (OVCAR-5 ovarian): 20.3 µM
- TGI (OVCAR-5 ovarian): 60.7 µM
- GI50 (PC-3 prostate): 4.13 µM
- TGI (PC-3 prostate): 24.3 µM
- GI50 (HOP-62 NSCLC): 3.47 µM
- TGI (HOP-62 NSCLC): 8.39 µM
- GI50 (OVCAR-4 ovarian): 61.3 µM
- TGI (OVCAR-4 ovarian): > 100 µM
- GI50 (HOP-92 NSCLC): 5.28 µM
- TGI (HOP-92 NSCLC): 28.9 µM
- GI50 (UACC-62 melanoma): 6.01 µM
- TGI (UACC-62 melanoma): 29.2 µM
- GI50 (SK-MEL-28 melanoma): 12.4 µM
- TGI (SK-MEL-28 melanoma): 43.5 µM
- GI50 (A549 NSCLC): 5.99 µM
- TGI (A549 NSCLC): 21.8 µM
- GI50 (SN12C renal): 5.04 µM
- TGI (SN12C renal): 24.5 µM
- GI50 (SW-620 colon): 4.5 µM
- TGI (SW-620 colon): 19.6 µM
- GI50 (CAKI-1 renal): 2.78 µM
- TGI (CAKI-1 renal): 13.7 µM
- GI50 (M14 melanoma): 3.13 µM
- TGI (M14 melanoma): 18.2 µM
- GI50 (IGROV1 ovarian): 2.46 µM
- TGI (IGROV1 ovarian): 8.29 µM
- GI50 (TK-10 renal): 6.89 µM
- TGI (TK-10 renal): 22.8 µM
- GI50 (SK-MEL-5 melanoma): 16.6 µM
- TGI (SK-MEL-5 melanoma): 39.2 µM
- GI50 (HCT-116 colon): 3.21 µM
- TGI (HCT-116 colon): 15.2 µM
- GI50 (SK-OV-3 ovarian): 8.62 µM
- TGI (SK-OV-3 ovarian): 34.5 µM
- GI50 (NCI-H226 lung): 19.8 µM
- TGI (NCI-H226 lung): > 100 µM
- GI50 (OVCAR-8 ovarian): 5.52 µM
- TGI (OVCAR-8 ovarian): 25.9 µM
- GI50 (U251 CNS): 4.38 µM
- TGI (U251 CNS): 16.7 µM
- GI50 (NCI-H23 lung): 3.92 µM
- TGI (NCI-H23 lung): 24 µM
- GI50 (HT29 colon): 21.8 µM
- TGI (HT29 colon): 59.7 µM
- GI50 (SNB-75 CNS): 20.5 µM
- TGI (SNB-75 CNS): 96.2 µM
- GI50 (KM12 colon): 3.92 µM
- TGI (KM12 colon): 19.1 µM
- GI50 (HL-60(TB) leukemia): 23 µM
- TGI (HL-60(TB) leukemia): > 100 µM
- GI50 (UACC-257 melanoma): 4.07 µM
- TGI (UACC-257 melanoma): 22.6 µM
- GI50 (ACHN renal): 6.04 µM
- TGI (ACHN renal): 28.1 µM
- GI50 (EKVX NSCLC): 17.4 µM
- TGI (EKVX NSCLC): 59.6 µM
- GI50 (LOX IMVI melanoma): 8.56 µM
- TGI (LOX IMVI melanoma): 24.3 µM
- GI50 (MDA-MB-435): 1.97 µM
- TGI (MDA-MB-435): 5.56 µM
- GI50 (K-562 leukemia): 0.656 µM
- TGI (K-562 leukemia): > 100 µM
- GI50 (MALME-3M melanoma): 12.5 µM
- TGI (MALME-3M melanoma): 35.4 µM
- GI50 (786-0 renal): 0.307 µM
- TGI (786-0 renal): 3.38 µM
- GI50 (RPMI-8226 leukemia): 2.91 µM
- TGI (RPMI-8226 leukemia): 8.59 µM
- GI50 (BT-549 breast): 15.1 µM
- TGI (BT-549 breast): 55.1 µM
- GI50 (HS 578T breast): 5.31 µM
- TGI (HS 578T breast): 38.8 µM
- GI50 (SR leukemia): 3.83 µM
- TGI (SR leukemia): 29.8 µM
- GI50 (COLO 205 colon): 18.3 µM
- TGI (COLO 205 colon): 46.1 µM
- GI50 (T-47D breast): 4.32 µM
- TGI (T-47D breast): 26.7 µM
- GI50 (SF-295 CNS): 2.17 µM
- TGI (SF-295 CNS): 5.55 µM

— PubChem BioAssay (NCI)
